Values of other authors, collected in patent publication US20040047892A1, “Filler composition for soft tissue augmentation and reconstructive surgery” (priority 2003, published 2004).

## collagen
Depending on the patient and site of injection
  time until the filler disappears: within a few months
In vivo
  share of the population allergic: about 3%
